Data on seven compounds can be found in US10294202B2, “Pyrrolidinones as herbicides” (FMC Corporation, priority 2013, dated 2019).

One test relates to monochoria. The test can be described thus: Test F flood (paddy) test. As to conditions: 21 d, scale 0-100. Type of test: in vivo, Monochoria vaginalis. From the text: Three plastic pots (ca. 16-cm diameter) per rate were partially filled with sterilized Tama silt loam soil comprising a 35:50:15 ratio of sand, silt and clay and 2.6% organic matter. Separate plantings for each of the three pots were as follows. Seeds from the U.S. of monochoria (Monochoria vaginalis), sedge, umbrella (small-flower umbrella sedge, Cyperus difformis), bulrush, […] bulrush, Scirpus juncoides), and […] (purple […] coccinea), were planted into one 16-cm pot for each rate. Seeds from the U.S. of flatsedge, rice (rice flatsedge, Cyperus iria), sprangletop, Brdd. (bearded sprangletop, Leptochloa fascicularis), one stand of 9 or 10 water seeded rice seedlings (Rice, W.S. Jap, Oryza sativa cv. 'Japonica-[…]' or Rice, W.S. Ind, 'Indica'), and two stands of 3 or 4 seedlings of rice, transplanted (transplanted rice, Oryza sativa cv. 'Japonica-[…]') were planted into one 16-cm pot for each rate. Seeds from the U.S. of barnyardgrass (Echinochloa crus-galli), […] (common […], Alisma plantago-aquatica), and watergrass, late (late watergrass, Echinochloa oryzicola) were planted into one 16-cm pot for each rate. Plantings were sequential so that crop and weed species were at the 2.0 to 2.5-leaf stage at time of treatment. Potted plants were grown in a greenhouse with day/night temperature settings of 30/27° C., and supplemental balanced lighting was provided to maintain a 16-h photoperiod. Test pots were maintained in the greenhouse until test completion. At time of treatment, test pots were flooded to 3 cm above the soil surface, treated by application of test compounds directly to the paddy water, and then maintained at that water depth for the duration of the test. Effects of treatments on rice and weeds were visually evaluated by comparison to untreated controls after 21 d. Plant response ratings, summarized in Table F, are based on a scale of 0 to 100 where 0 is no effect and 100 is complete control. A dash (-) response means no test result.

The test system of a further test is wheat, spring. The experiment in a line: Test D pre-/postemergence herbicide test. Type of test: in vivo, Triticum aestivum. The note with it: for Plant response rating: Postemergence, Wheat, Spring, scale 0 to 100; for Plant response rating, Wheat, Spring: Preemergence, scale 0 to 100 (0 no effect, 100 complete control). The text has this: (§1) Seeds of plant species selected from bluegrass (annual bluegrass, Poa annua), blackgrass (Alopecurus myosuroides), canarygrass (littleseed canarygrass, Phalaris minor), chickweed (common chickweed, Stellaria media), galium (catchweed bedstraw, Galium aparine), bromegrass, downy (downy bromegrass, Bromus tectorum), field poppy (Papaver rhoeas), field violet (Viola arvensis), foxtail, green (green foxtail, Setaria viridis), deadnettle (henbit deadnettle, Lamium amplexicaule), ryegrass, Italian (Italian ryegrass, Lolium multiflorum), kochia (Kochia scoparia), lambsquarters (Chenopodium album), oilseed rape (Brassica napus), pigweed (Amaranthus retroflexus), chamomile (scentless chamomile, Matricaria inodora), Russian thistle (Salsola kali), speedwell (bird's-eye speedwell, Veronica persica), barley, spring (spring barley, Hordeum vulgare), wheat, spring (spring wheat, Triticum aestivum), buckwheat, wild (wild buckwheat, Polygonum convolvulus), mustard, wild (wild mustard, Sinapis arvensis), oat, wild (wild oat, Avena fatua), radish, wild (wild radish, Raphanus raphanistrum), […]), barley, winter (winter barley, Hordeum vulgare), and wheat, winter (winter wheat, Triticum aestivum) were planted into a silt loam soil and treated preemergence with test chemicals formulated in a non-phytotoxic solvent mixture which included a surfactant. At the same time, these species were planted in pots containing Redi-Earth® planting medium (Scotts Company, 14111 Scottslawn Road, Marysville, Ohio 43041) comprising spaghnum peat moss, vermiculite, wetting agent and starter nutrients and treated with postemergence applications of the test chemicals formulated in the same manner. Plants ranged in height from 2 to 18 cm (1- to 4-leaf stage). Treated plants and controls were maintained in a controlled growth environment for 7 to 21 days after which time all species were compared to controls and visually evaluated. Plant response ratings, summarized in Table D, are based on a scale of 0 to 100 where 0 is no effect and 100 is complete control. A dash (-) response means no test result.

The test system of another test is wheat, winter. The test can be described thus: Test D pre-/postemergence herbicide test. Type of test: in vivo, Triticum aestivum. The note with it: for Plant response rating: Postemergence, Wheat, Winter, scale 0 to 100; for Plant response rating, Wheat, Winter: Preemergence, scale 0 to 100 (0 no effect, 100 complete control).
Description: as §1

The test system of another test is chamomile. The experiment in a line: Test D pre-/postemergence herbicide test. The note with it: for Plant response rating: Chamomile, scale 0 to 100; for Plant response rating, Chamomile: scale 0 to 100 (0 no effect, 100 complete control). The test is classed as in vivo, Matricaria inodora.
Description: as §1

The test system of a further test is oat, wild. The experiment in a line: Test D pre-/postemergence herbicide test. The test is classed as in vivo, Avena fatua. As to conditions: for Plant response rating: Postemergence, Oat, Wild, scale 0 to 100; for Plant response rating, Oat, Wild: Preemergence, scale 0 to 100 (0 no effect, 100 complete control).
Description: as §1

Turning to `O=C1NCC(c2cccc(C(F)(F)F)c2)C1C(=O)Nc1ccccc1F` (racemic) [Compound 3], the results for the “Plant response rating, Monochoria” value with monochoria (250 g ai/ha) and in the test on monochoria (500 g ai/ha) were 90 and 100, respectively.
As for `O=C1NCC(c2ccc(F)c(F)c2)C1C(=O)Nc1cccc(F)c1` (racemic) [Compound 12], the Plant response rating in the test with wheat, spring (16 g ai/ha) is given as 0; in the test on wheat, spring (31 g ai/ha), 0; in the test on wheat, spring (62 g ai/ha), 0; in the test on wheat, spring (125 g ai/ha) it was 0; in the test with wheat, spring (250 g ai/ha), 0; with wheat, winter (16 g ai/ha), 0. The Plant response rating in the test with wheat, winter (31 g ai/ha) was 0; in the test with wheat, winter (62 g ai/ha), 0; in the test on wheat, winter (125 g ai/ha), 0; in the test with wheat, winter (250 g ai/ha) it was 0; with chamomile (Postemergence, 16 g ai/ha) it was 0; in the test on chamomile (Postemergence, 31 g ai/ha) it was 0. In addition, the Plant response rating with chamomile (Postemergence, 62 g ai/ha) worked out at 0; in the test with chamomile (Postemergence, 125 g ai/ha) it was 0; with chamomile (Postemergence, 250 g ai/ha), 0; in the test on chamomile (Preemergence, 125 g ai/ha), 0; with chamomile (Preemergence, 250 g ai/ha), 20; in the test on oat, wild (16 g ai/ha) it was 0. For the same compound, the Plant response rating with oat, wild (31 g ai/ha) worked out at 0; in the test with oat, wild (62 g ai/ha), 10; with oat, wild (125 g ai/ha) it was 15; in the test on oat, wild (250 g ai/ha) it was 20. The “Plant response rating, Wheat, Spring” value in the test on wheat, spring (31 g ai/ha) turned out to be 0; in the test on wheat, spring (62 g ai/ha), 0; in the test on wheat, spring (125 g ai/ha), 0; with wheat, spring (250 g ai/ha) it was 0; in the test on wheat, spring (16 g ai/ha) it was 0. Further, the “Plant response rating, Wheat, Winter” value in the test with wheat, winter (31 g ai/ha) was 0; with wheat, winter (62 g ai/ha), 0; in the test on wheat, winter (125 g ai/ha) it was 0; in the test with wheat, winter (250 g ai/ha), 0; in the test with wheat, winter (16 g ai/ha), 0. Moreover, the “Plant response rating, Chamomile” value with chamomile (Preemergence, 31 g ai/ha) is 0; in the test on chamomile (Preemergence, 62 g ai/ha), 0; with chamomile (Preemergence, 16 g ai/ha) it was 0. For the same compound, the “Plant response rating, Oat, Wild” value with oat, wild (31 g ai/ha) is 0; with oat, wild (62 g ai/ha), 0; in the test with oat, wild (125 g ai/ha), 0; with oat, wild (250 g ai/ha), 0; with oat, wild (16 g ai/ha), 0.
For `O=C1NCC(c2cc(F)c(F)c(F)c2)C1C(=O)Nc1ccccc1C(F)(F)F` (racemic) [Compound 33], the Plant response rating with wheat, spring (16 g ai/ha) is reported as 0; with wheat, spring (31 g ai/ha), 0; in the test with wheat, spring (62 g ai/ha), 0; in the test with wheat, spring (125 g ai/ha), 0; in the test with wheat, spring (250 g ai/ha), 0; in the test on wheat, winter (16 g ai/ha), 0. For the same compound, the Plant response rating in the test with wheat, winter (31 g ai/ha) came out at 0; with wheat, winter (62 g ai/ha) it was 0; in the test with wheat, winter (125 g ai/ha) it was 0; with wheat, winter (250 g ai/ha) it was 0; in the test with chamomile (Postemergence, 16 g ai/ha), 0; in the test on chamomile (Postemergence, 31 g ai/ha), 0. For the same compound, the Plant response rating in the test with chamomile (Postemergence, 62 g ai/ha) stood at 0; in the test with chamomile (Postemergence, 125 g ai/ha), 0; in the test on chamomile (Postemergence, 250 g ai/ha) it was 0; in the test with oat, wild (16 g ai/ha), 0; in the test on oat, wild (31 g ai/ha), 0; in the test with oat, wild (62 g ai/ha) it was 0. The Plant response rating in the test on oat, wild (125 g ai/ha) was 0; in the test with oat, wild (250 g ai/ha), 0.
Turning to `O=C1NCC(c2cc(F)c(F)c(F)c2)C1C(=O)Nc1ccccc1F` (racemic) [Compound 34], the Plant response rating in the test with wheat, spring (16 g ai/ha) is recorded as 0; with wheat, spring (31 g ai/ha) it was 0; with wheat, spring (62 g ai/ha), 0; in the test with wheat, spring (125 g ai/ha) it was 0; in the test on wheat, spring (250 g ai/ha), 0; in the test on wheat, winter (16 g ai/ha) it was 0. For the same compound, the Plant response rating was 0 in the test on wheat, winter (31 g ai/ha); 0 with wheat, winter (62 g ai/ha); 0 with wheat, winter (125 g ai/ha); 0 in the test with wheat, winter (250 g ai/ha); 0 in the test with chamomile (Postemergence, 16 g ai/ha); 0 in the test on chamomile (Postemergence, 31 g ai/ha). Also, the Plant response rating with chamomile (Postemergence, 62 g ai/ha) was 0; in the test on chamomile (Postemergence, 125 g ai/ha), 0; with chamomile (Postemergence, 250 g ai/ha) it was 0; with oat, wild (16 g ai/ha), 0; with oat, wild (31 g ai/ha), 0; in the test with oat, wild (62 g ai/ha), 0. Besides, the Plant response rating is given as 0 with oat, wild (125 g ai/ha) and 0 in the test with oat, wild (250 g ai/ha).
Consider `O=C1NCC(c2ccc(C(F)(F)F)c(F)c2)C1C(=O)Nc1cccc(F)c1F` (racemic) [Compound 247], for which the “Plant response rating, Monochoria” value was found to be 70 with monochoria (125 g ai/ha); 70 in the test with monochoria (250 g ai/ha); 75 in the test with monochoria (500 g ai/ha); 75 in the test with monochoria (1000 g ai/ha); 75 with monochoria (2000 g ai/ha).
Take `O=C1NCC(c2cccc(C(F)(F)F)c2)C1C(=O)Nc1cccc(F)c1F` (stereo not shown) [Compound 241]: the “Plant response rating, Wheat, Spring” value with wheat, spring (31 g ai/ha) is reported as 0; in the test on wheat, spring (62 g ai/ha), 0; with wheat, spring (125 g ai/ha) it was 25; with wheat, spring (250 g ai/ha), 40. Further, the “Plant response rating, Wheat, Winter” value is given as 0 with wheat, winter (31 g ai/ha); 5 with wheat, winter (62 g ai/ha); 10 in the test on wheat, winter (125 g ai/ha); 25 in the test with wheat, winter (250 g ai/ha). For the same compound, the “Plant response rating, Oat, Wild” value in the test on oat, wild (31 g ai/ha) is given as 15; in the test with oat, wild (62 g ai/ha), 15; in the test on oat, wild (125 g ai/ha) it was 20; in the test with oat, wild (250 g ai/ha), 55.
Regarding `CN1CC(c2ccc(F)cc2)C(C(=O)Nc2cccc(F)c2F)C1=O` (stereo not shown) [Compound 271], the “Plant response rating, Monochoria” value with monochoria (64 g ai/ha) is recorded as 85; in the test with monochoria (125 g ai/ha) it was 100; in the test on monochoria (250 g ai/ha), 100; with monochoria (500 g ai/ha), 100.
